The record followed here is ChEMBL document CHEMBL1142691, “Solid-phase total synthesis of kahalalide A and related analogues” (2005).

The subject of experiment [1] is Mycobacterium tuberculosis. Put plainly: Minimum inhibitory concentration against Mycobacterium tuberculosis. In kind it is functional.
Experiment [2] has as its system Mycobacterium tuberculosis. Put plainly: Concentration to inhibit of the growth of Mycobacterium tuberculosis at 12.5 ug/ml. The format is functional.

Values after ≈ are worked out from the molar mass of the structure shown.

`CCC(C)C(=O)N[C@H](Cc1ccccc1)C(=O)N[C@@H]1C(=O)N[C@H](CC(C)C)C(=O)N[C@H](Cc2ccccc2)C(=O)N[C@H](CC(C)C)C(=O)N[C@@H]([C@@H](C)O)C(=O)N[C@@H](CO)C(=O)O[C@@H]1C` (some centres undefined) gave an MIC in experiment [1] of 64 µg/mL (≈ 71.6 µM). Further, in experiment [2], 12.5 µg/mL produced 83% inhibition.
Regarding `CC[C@H](C)C(=O)N[C@H](Cc1ccccc1)C(=O)N[C@@H]1C(=O)N[C@H](CC(C)C)C(=O)N[C@H](Cc2ccccc2)C(=O)N[C@H](CC(C)C)C(=O)N[C@@H]([C@@H](C)O)C(=O)N[C@@H](CO)C(=O)O[C@@H]1C`, in experiment [1], the MIC came to 64 µg/mL (≈ 71.6 µM).
With `CCCCCC(=O)N[C@H](Cc1ccccc1)C(=O)N[C@@H]1C(=O)N[C@H](CC(C)C)C(=O)N[C@H](Cc2ccccc2)C(=O)N[C@H](CC(C)C)C(=O)N[C@@H]([C@@H](C)O)C(=O)N[C@@H](CO)C(=O)O[C@@H]1C`, 32 µg/mL (≈ 35.2 µM) was the least that counted as inhibitory in experiment [1] (MIC).

Broadly, the MIC is the least concentration at which growth counts as inhibited. Read a low MIC as a more susceptible organism. In general, inhibition refers to the change of the read-out against control, counted positive when it falls. High values mean a strong effect, low ones a weak effect.
